Source: ChEMBL document CHEMBL1201862, “PubChem BioAssay data set” (2004)
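Grown in 96-well plates, cells were treated for 48 hours with each compound at five concentrations. Insufficient inhibition: endpoint recorded as highest concentration tested. Here, GI50 denotes the concentration required for 50% inhibition of growth.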 Active and inactive are the calls of the source. No stated cut-off is given here; in the data, active = GI50 up to about 1.1 µM and inactive = higher.

What was measured:
Experiment in all cases: NCI-60 cell line screen, 48 h
[1] = test system: A549
[2] = test system: CCRF-CEM
[3] = test system: COLO 205
[4] = test system: HCC 2998
[5] = test system: HCT-116
[6] = test system: NCI-H522
[7] = test system: OVCAR-4
[8] = test system: OVCAR-8
[9] = test system: RPMI-8226
[10] = test system: SK-MEL-2
[11] = test system: SK-MEL-5
[12] = test system: SK-OV-3
[13] = test system: A498
[14] = test system: CAKI-1
[15] = test system: SW-620
[16] = test system: HOP-92

Measured: GI50

O=C(CSc1nnc(Cc2ccccc2)o1)Nc1cccc([N+](=O)[O-])c1
inactive: [1] > 100 µM | [2] > 100 µM | [3] > 100 µM | [4] > 100 µM | [5] > 100 µM | [6] > 100 µM | [7] > 100 µM | [8] > 100 µM | [9] > 100 µM | [10] > 100 µM | [11] > 100 µM | [12] > 100 µM

COc1cc(OC)c(C(=O)c2cccs2)cc1N
inactive: [13] > 100 µM | [1] > 100 µM | [14] > 100 µM | [2] > 100 µM | [3] > 100 µM | [4] > 100 µM | [7] > 100 µM | [8] > 100 µM | [9] > 100 µM | [10] > 100 µM | [11] > 100 µM | [12] > 100 µM | [15] > 100 µM

CCOc1ccc(NCC(=O)N2CC(=O)Nc3ccccc32)cc1
inactive: [1] > 100 µM | [14] > 100 µM | [2] > 100 µM | [3] > 100 µM | [4] > 100 µM | [5] > 100 µM | [16] > 100 µM | [6] > 100 µM | [7] > 100 µM | [8] > 100 µM | [9] > 100 µM | [10] > 100 µM | [11] > 100 µM | [12] > 100 µM | [15] > 100 µM

O=C1c2ccccc2C(=O)N1Cc1ccccc1-c1c2nc(c(-c3ccccc3CN3C(=O)c4ccccc4C3=O)c3ccc([nH]3)c(-c3ccccc3CN3C(=O)c4ccccc4C3=O)c3nc(c(-c4ccccc4CN4C(=O)c5ccccc5C4=O)c4ccc1[nH]4)C=C3)C=C2
inactive: [13] > 100 µM | [1] > 100 µM | [14] > 100 µM | [2] > 100 µM | [3] 74 µM | [5] > 100 µM | [16] > 100 µM | [6] > 100 µM | [7] > 100 µM | [8] > 100 µM | [9] > 100 µM | [10] > 100 µM | [11] 52.7 µM | [12] > 100 µM | [15] > 100 µM

C/C(CC(=O)Nc1ccc(Cl)cc1)=N\NC(=O)C[n+]1ccccc1
inactive: [1] > 100 µM | [2] > 100 µM | [3] > 100 µM | [4] > 100 µM | [5] > 100 µM | [16] > 100 µM | [6] 75 µM | [8] > 100 µM | [9] > 100 µM | [10] > 100 µM | [11] > 100 µM | [12] > 100 µM | [15] > 100 µM

Cc1cc(NS(=O)(=O)c2ccc(NC(=O)COC(=O)c3cccc4c(=O)c5ccccc5[nH]c34)cc2)no1
inactive: [13] > 100 µM | [1] > 100 µM | [14] > 100 µM | [2] > 100 µM | [3] > 100 µM | [4] > 100 µM | [5] > 100 µM | [16] > 100 µM | [6] > 100 µM | [7] > 100 µM | [8] > 100 µM | [9] > 100 µM | [11] > 100 µM | [12] > 100 µM | [15] > 100 µM

COC(=O)C(CC(C)C)NC(=O)NC12CC3CC(CC(F)(C3)C1)C2 (stereo unspecified)
inactive: [13] > 100 µM | [1] > 100 µM | [2] > 100 µM | [3] > 100 µM | [4] 29.3 µM | [5] > 100 µM | [16] 50.6 µM | [6] > 100 µM | [8] > 100 µM | [9] > 100 µM | [10] > 100 µM | [11] > 100 µM | [12] > 100 µM | [15] > 100 µM

Cc1c(C)c2cc3c(=O)c(CCl)coc3c(C)c2oc1=O
inactive: [13] > 100 µM | [1] > 100 µM | [2] 48.3 µM | [3] > 100 µM | [4] > 100 µM | [5] > 100 µM | [6] 95.3 µM | [8] > 100 µM | [9] 75 µM | [10] > 100 µM | [11] > 100 µM | [12] > 100 µM | [15] > 100 µM

CC(=O)OC1CC2OC(Cc3ccccc32)O1 (stereo unspecified)
inactive: [1] > 100 µM | [2] 56.1 µM | [3] > 100 µM | [4] > 100 µM | [5] > 100 µM | [16] 34 µM | [6] > 100 µM | [8] > 100 µM | [9] > 100 µM | [10] > 100 µM | [12] > 100 µM | [15] > 100 µM

COC(=O)C(Cc1nc2ccc(Cl)cc2nc1O)/C(=N/O)C(=O)Nc1cccc(Cl)c1C (stereo unspecified)
inactive: [13] > 100 µM | [1] > 100 µM | [14] > 100 µM | [2] > 100 µM | [3] > 100 µM | [4] > 100 µM | [5] > 100 µM | [6] > 100 µM | [7] > 100 µM | [8] > 100 µM | [9] > 100 µM | [10] > 100 µM | [11] > 100 µM | [12] > 100 µM | [15] > 100 µM

CC(C)OC(=O)C1Cc2c([nH]c3ccccc23)C(c2ccccc2)N1 (stereo unspecified)
inactive: [13] 88.5 µM | [1] 66.1 µM | [14] > 100 µM | [2] 79.4 µM | [3] > 100 µM | [4] 30.5 µM | [5] 62.4 µM | [16] 55 µM | [6] 29.2 µM | [7] 79.8 µM | [8] > 100 µM | [9] 84.9 µM | [10] 18.2 µM | [11] 91.2 µM | [12] > 100 µM | [15] > 100 µM

CCOC(=O)/C(C#N)=C1/C(O)=C(C(=O)OC)C(C(=O)OC)=C1C(=O)OC.c1ccncc1
inactive: [1] > 100 µM | [14] > 100 µM | [2] > 100 µM | [3] > 100 µM | [4] > 100 µM | [16] > 100 µM | [6] > 100 µM | [7] > 100 µM | [8] > 100 µM | [9] > 100 µM | [10] > 100 µM | [11] > 100 µM | [12] > 100 µM | [15] > 100 µM

CCOc1cccc2sc(N)nc12
inactive: [13] > 100 µM | [1] > 100 µM | [14] > 100 µM | [3] > 100 µM | [4] > 100 µM | [5] > 100 µM | [16] > 100 µM | [6] > 100 µM | [7] > 100 µM | [8] > 100 µM | [9] > 100 µM | [10] > 100 µM | [11] > 100 µM | [12] > 100 µM | [15] > 100 µM

Cc1ccccc1NC(=O)C(=O)CC(=O)c1ccc([N+](=O)[O-])cc1
inactive: [1] > 100 µM | [14] > 100 µM | [3] > 100 µM | [4] 23.8 µM | [5] > 100 µM | [16] > 100 µM | [7] > 100 µM | [8] > 100 µM | [9] > 100 µM | [10] > 100 µM | [12] > 100 µM | [15] > 100 µM

C[N+](C)(C)CC(=O)N/N=C(\CCC(=O)NCCc1ccccc1)CC(=O)c1ccccc1
inactive: [13] > 100 µM | [1] > 100 µM | [14] > 100 µM | [2] > 100 µM | [3] > 100 µM | [4] > 100 µM | [5] > 100 µM | [16] > 100 µM | [6] > 100 µM | [7] > 100 µM | [8] > 100 µM | [9] > 100 µM | [10] > 100 µM | [11] > 100 µM | [12] > 100 µM | [15] > 100 µM

CCOC12OC3=C(CC1CC1=C(CCC1=O)O2)C(=O)CC3 (stereo unspecified)
inactive: [13] > 100 µM | [1] > 100 µM | [14] > 100 µM | [2] > 100 µM | [3] > 100 µM | [5] > 100 µM | [16] > 100 µM | [6] > 100 µM | [7] > 100 µM | [8] > 100 µM | [9] > 100 µM | [10] > 100 µM | [11] > 100 µM | [12] > 100 µM | [15] > 100 µM

CCOC(=O)CC1=CSC2=NCCN12
inactive: [13] > 100 µM | [1] > 100 µM | [14] > 100 µM | [2] > 100 µM | [3] > 100 µM | [4] > 100 µM | [5] > 100 µM | [16] > 100 µM | [6] > 100 µM | [7] > 100 µM | [8] > 100 µM | [10] > 100 µM | [11] > 100 µM | [12] > 100 µM | [15] > 100 µM

COc1cc(C(=O)C/C(CCC(=O)Nc2ccc(Cl)cc2Cl)=N/NC(=O)C(N)=O)ccc1O
inactive: [13] > 100 µM | [1] > 100 µM | [14] > 100 µM | [2] > 100 µM | [3] > 100 µM | [4] > 100 µM | [5] > 100 µM | [16] > 100 µM | [6] > 100 µM | [7] > 100 µM | [8] > 100 µM | [9] > 100 µM | [10] > 100 µM | [11] > 100 µM | [12] > 100 µM | [15] > 100 µM
